From publication PMC4841536, “Characterization of the Anti-HCV Activities of the New Cyclophilin Inhibitor STG-175” (PLoS ONE, 2016)
pEC50: −log10 of the molar value. Read-outs that look alike come from different tables or passages of the source.

Columns and labels:
[1] = test system: HCV GT1a subgenomic replicon H77 RLucP; assay: Luciferase reporter replicon antiviral assay, GT1a; type: cell-based; details: Hepatitis C virus
Procedure: (§1) The anti-HCV activity of STG-175 was conducted using a panel of luciferase reporter replicon cell lines including GT1a, GT1b, GT2a, GT3a and GT4a as we described previously. The GT1a subgenomic renilla luciferase reporter replicon H77 RLucP (7) was supplied by Dr. Delaney. The GT1b subgenomic firefly luciferase reporter replicon pFK-I389/NS3-3’ [29] was supplied by Dr. Bartenschlager. The GT1B subgenomic NS3, NS5A and NS5B mutants were created via homologous recombination using the In-Fusion HD Cloning kit (Clontech) as we described previously. The GT2a genomic luciferase reporter replicon Luc-Neo-JFH-1 was generated as previously. The plasmid pFK-Luc-JFH1 was supplied from Drs. […] The CellTiter-Fluor™ Cell Viability Assay is a non-lytic fluorescence assay, which measures the number of live cells. […] Luciferase activity was determined using the Luciferase Assay System (Promega) in a Berthold luminometer. […] Viable cells continuously convert resazurin to resorufin, increasing the overall fluorescence and color of the media surrounding cells.
(§2) Fig 2 Anti-HCV activities of STG-175 among GTs. […] Luciferase activity was determined using the Luciferase Assay System in a Berthold luminometer. […] Data are expressed as mean of relative light units and calculated EC50s are presented. […]

[2] = alamarBlue cytotoxicity (CC50), GT3a replicon cell line; details: human
Procedure: as §1, §2

[3] = test system: NS5Ai-resistant L31V NS5A Con1 GT1b replicon; assay: Electroporated Con1 RNA replication in Huh7.5.1 cells (RT-qPCR), L31V NS5A; type: cell-based; details: Hepatitis C virus, Huh-7.5.1, 192 h, read-out: EC50 L31V NS5A
Text: (§3) The GT1b subgenomic firefly luciferase reporter replicon pFK-I389/NS3–3 was provided by R. Bartenschlager. The GT1B subgenomic NS3, NS5A and NS5B mutants were created via homologous recombination using the In-Fusion HD Cloning kit (Clontech) as we described previously. […] The in vitro transcription of wild-type and mutant Con1 RNA was accomplished using the T7 MEGAscript kit (Ambion) by following the manufacturer’s instructions. In vitro-transcribed RNAs were introduced into Huh7.5.1 cells by electroporation. Trypsinized cells were washed twice and resuspended in phosphate-buffered saline (PBS) (calcium-free and magnesium-free) at 1x 10^7 cells per ml. Ten micrograms of RNA for each mutant was mixed with 0.4 mL of cells in a 4-mm cuvette, and a Bio-Rad Gene Pulser system was used to deliver a single pulse at 0.27 kV, 100 ohms, and 960 μF. […] RNA transfection efficiency and HCV subgenomic replication were assessed by reverse transcription-quantitative PCR (RT-qPCR) and presented as genome equivalents (GE) per microgram of total RNA as described previously. We measured by RT-qPCR the replication of wild-type, STG-175-, NS5Ai-, NS3i- and NS5Bi-resistant mutants in the presence of increasing concentrations of SGT-175, daclatasvir, telaprevir, boceprevir and sofosbuvir over a period of 8 days.
(§4) Fig 5 Cross-resistance analyses. […] Data are expressed as log of GE/μg of total RNA. […]

[4] = test system: NS5Bi-resistant S282T NS5B Con1 GT1b replicon; assay: Electroporated Con1 RNA replication in Huh7.5.1 cells (RT-qPCR), S282T NS5B; type: cell-based; details: Hepatitis C virus, Huh-7.5.1, 192 h, read-out: EC50 S282T NS5B
Text: as §3, §4

Q: With CC=CCC(C)C(O)C1C(=O)NC(CC)C(=O)N(C)C(CSCCCCO)C(=O)N(C)C(CC(C)(C)O)C(=O)NC(C(C)C)C(=O)N(C)C(CC(C)C)C(=O)NC(C)C(=O)NC(C)C(=O)N(C)C(CC(C)C)C(=O)N(C)C(CC(C)C)C(=O)N(C)C(C(C)C)C(=O)N1C (centres unmarked) [STG-175] as the molecule, how does the pEC50 ([1]; 72 h post-drug addition, luciferase, read-out: EC50 GT1a) read?
A: The pEC50 was 7.87.

Q: What about the pEC50 ([1]; Fig 2D table, unit inferred, read-out: EC50 GT1a (Fig 2D)) of the same molecule?
A: Its pEC50 is 7.87.

Q: And the CC50 at 72 h [2]?
A: Its CC50 at 72 h is over 10000 nM.

Q: What about the pEC50 [3] of the same molecule?
A: The pEC50 was 7.82.

Q: And the pEC50 [4]?
A: Its pEC50 is 8.27.
